Measurements published in patent US20170184612A1, “USE OF LEUKOCYTES AND NOVEL BIOMARKERS IN THE DIAGNOSIS, CONFIRMATION, AND TREATMENT OF A NEUROLOGICAL DISORDER” (The Trustees of Columbia University in the City of New York, priority 2014, published 2017).

What was measured:
[1] = tested on: peripheral blood mononuclear cells (PBMC), T cells; assay: ELISpot assay, gamma-interferon release (SFC) after stimulation with a-synuclein epitope pools; type: cell-based, human; conditions: for Pool +: IFNg, Pool Stimulated, number of donors with a positive response, Donors tested 1
Protocol: (§1) Blood from age matched controls and PD patients were obtained and mononuclear cells were isolated by gradient centrifugation.
(§2) Release of the cytokines gamma-interferon, which measures activation of CD4+ and/or CD8+ T cells, and the interleukin, IL-5, which measures activation of CD4+ T cells was measured by ELISpot assay. […] After 22 hours of stimulation at 37 C, the cells were removed and release of cytokines was measured by colorimetric detection of spot-forming cells (SFC). Confirmed release of cytokine is determined by the presence of a minimum of 20 SFC per million cells.
(§3) The binding algorithms in SubAim 1 predict how well the peptides would bind to MHC if present, but not if they are present in patients. To determine this, the presence of T cell response against the candidate antigens by patient blood-derived peripheral blood mononuclear cells (PBMC) is assessed by ELISPOT assays upon stimulation with the peptides. This assay detects and quantifies cytokine release (in this case, IFNγ and IL-5) from specific activated T cells.
(§4) Data were obtained from blood samples (25 ml) from 44 PD patients and 24 age-matched controls. The experiments were conducted blindly. PBMCs from these samples were isolated and exposed to pools comprising the 122 candidate class I and class II antigens and phosphorylated S129 epitopes generated in Subaim 1. For the PBMCs responsive to the pooled peptides, the response was then deconvoluted to identify individual epitopes.
(§5) PMBC fractions are recovered by standard methods with Ficoll gradient and T cells expansion (Oseroff et al., 2010). The methods for the analysis of T cell reactions and measurement of cytokines production using the enzyme-linked immunosorbent spot (ELISPOT) assay are published in analogous experiments to discover antigens in multiple sclerosis (Lolli et al., 2013) and in hay fever allergens (Oseroff et al., 2010). T cell responses are determined by measuring IFNγ and IL-5 release by ELISPOT. Statistical analysis of differences between populations is expected to be non-parametric and analyzed with the U-Mann-Whitney test. If there were a normal distribution of response, which is a priori unlikely as some patients have no T cell response, with an SD=1, 8 patients per group would be required to provide a p>90% that the study detect a >2 fold difference at a two-sided 0.05 significance level.

[2] = tested on: peripheral blood mononuclear cells (PBMC), T cells; assay: ELISpot assay, IL-5 release (SFC) after stimulation with a-synuclein epitope pools; type: cell-based, human
Protocol: as §1, §2, §3, §4, §5

[3] = Patients Summary, PD patients, of donors tested (peptide)
[4] = Patients Summary, PD patients, single peptide
[5] = number of donors positive to the single peptide, second 'Pool Stimulated' section (from r296), 12 donors tested
[6] = peptide + / donors tested (peptide), second 'Pool Stimulated' section (from r296), 12 donors tested
[7] = single peptide, second 'Pool Stimulated' section (from r296), 12 donors tested
[8] = pool 'Phospho' (phosphorylated peptides)
[9] = Patients Summary, Phospho pool peptides
[10] = Patients Summary, Phospho pool peptides, 10 donors tested
[11] = peptides of pool 'Poshpho', 8 donors tested
[12] = peptides of pool 'Poshpho', 8 donors tested, number of donors positive

Substance	Pool + [1]	IFNg Peptide + (donors positive to the peptide) [1, 3]	IFNg Response Frequency [1, 4] [%]	IFNg Total SFC [1, 4] [SFC]	IFNg Peptide + [1, 5]	IFNg Response Frequency [1, 6] [%]	IL-g Peptide + (donors positive to the peptide) [2, 3]	IL-g Response Frequency [2, 4] [%]	IL-g Total SFC [2, 4] [SFC]	IL-g Peptide + [2, 5]	IL-g Response Frequency [2, 6] [%]	IL-g Total SFC [2, 7] [SFC]	IFNg Total SFC [1, 7] [SFC]	IL-g Avg SFC [2, 7] [SFC]	IFNg Avg SFC [1, 4] [SFC]	other results
3521.0041 (EGILEDMPVD; listed as Homo sapiens)	0	0	0	0	0	0	0	0	0	0	0	0				
3521.0079 (KGVVHGVATVAEKTK; listed as Homo sapiens)	1	0	0	0	0	0	0	0	0	1	50	284	0	284		
3521.0051 (EEGAPQEGIL; listed as Homo sapiens)	1	1	25	427	1	50	0	0	0	1	50	1028	554	1028	427	IFNg Avg SFC [1, 7]: 554 SFC
3521.0063 (GVVHGVTTV; listed as Homo sapiens)	1	1	50	143	0	0	0	0	0	0	0	0	0		143	
3521.0008 (IAAATGFVK; listed as Homo sapiens)	0	0	0	0	0	0	1	25	177	0	0	0	0			IL-g Avg SFC [2, 4]: 177 SFC
3521.0018 (MPVDPDNEA; listed as Homo sapiens)	0	0	0	0	0	0	0	0	0	0	0	0				
3521.0069 (GVAEAAGKTK; listed as Homo sapiens)	0	1	13	53	0	0	0	0	0	0	0	0	0		53	
3521.0056 (YEMPSEEGYQ; listed as Homo sapiens)	0	0	0	0	0	0	0	0	0	1	50	89		89		Pool + [1, 8]: 0; IFNg Response Frequency [1, 9]: 0%; IFNg Total SFC [1, 9]: 0 SFC; IFNg Peptide + (donors positive to the peptide) [1, 10]: 0; IFNg Avg SFC [1, 11]: 100 SFC; IFNg Response Frequency [1, 11]: 13%; IFNg Total SFC [1, 11]: 100 SFC; IFNg Peptide + [1, 12]: 1; IL-g Response Frequency [2, 9]: 0%; IL-g Total SFC [2, 9]: 0 SFC; IL-g Peptide + (donors positive to the peptide) [2, 10]: 0; IL-g Avg SFC [2, 11]: 167 SFC; IL-g Response Frequency [2, 11]: 13%; IL-g Total SFC [2, 11]: 167 SFC; IL-g Peptide + [2, 12]: 1
3521.0013 (VTNVGGAVV; listed as Homo sapiens)	0	1	50	209	0	0	0	0	0	0	0	0	0		209	
3521.0058 (SEEGYQDYEP; listed as Homo sapiens)	0	0	0	0	0	0	0	0	0	1	50	58		58		Pool + [1, 8]: 1; IFNg Avg SFC [1, 9]: 107 SFC; IFNg Response Frequency [1, 9]: 20%; IFNg Total SFC [1, 9]: 213 SFC; IFNg Peptide + (donors positive to the peptide) [1, 10]: 1; IFNg Avg SFC [1, 11]: 26.7 SFC; IFNg Response Frequency [1, 11]: 13%; IFNg Total SFC [1, 11]: 26.7 SFC; IFNg Peptide + [1, 12]: 1; IL-g Avg SFC [2, 9]: 73 SFC; IL-g Response Frequency [2, 9]: 10%; IL-g Total SFC [2, 9]: 73 SFC; IL-g Peptide + (donors positive to the peptide) [2, 10]: 1; IL-g Response Frequency [2, 11]: 0%; IL-g Total SFC [2, 11]: 0 SFC; IL-g Peptide + [2, 12]: 0
3521.004 (DNEAYEMPSE; listed as Homo sapiens)	0	0	0	0	0	0	0	0	0	0	0	0				Pool + [1, 8]: 0; IFNg Avg SFC [1, 9]: 364 SFC; IFNg Response Frequency [1, 9]: 20%; IFNg Total SFC [1, 9]: 727 SFC; IFNg Peptide + (donors positive to the peptide) [1, 10]: 2; IFNg Response Frequency [1, 11]: 0%; IFNg Total SFC [1, 11]: 0 SFC; IFNg Peptide + [1, 12]: 0; IL-g Avg SFC [2, 9]: 203 SFC; IL-g Response Frequency [2, 9]: 20%; IL-g Total SFC [2, 9]: 406.3 SFC; IL-g Peptide + (donors positive to the peptide) [2, 10]: 2; IL-g Response Frequency [2, 11]: 0%; IL-g Total SFC [2, 11]: 0 SFC; IL-g Peptide + [2, 12]: 0
3521.0064 (GVVHGVATV; listed as Homo sapiens)	1	0	0	0	0	0	0	0	0	1	50	75	0	75		
